In patent US20070134391A1, “High-Potency Sweetener Composition for Treatment and/or Prevention of Autoimmune Disorders and Compositions Sweetened Therewith” (THE COCA-COLA COMPANY, priority 2005, published 2007):

Tests used:
[1] = system: panel of experts in the sensory evaluation of foods and beverages; experiment: Sensory evaluation of sweetness linger and sugar-like taste by expert panel; type: in vivo; details: scale 0=no sweetness linger to 5=high sweetness linger
Experimental: Sensory evaluation of the samples prepared in Example Set G was carried out under the following protocol, similar to that described hereinabove. In this test protocol, none of the samples were swallowed. All samples were expectorated and the mouth was rinsed with water after the tasting. Immediately upon sensing maximal sweetness, the sample was expectorated, the mouth was rinsed with water and the rate of sweetness decay (“Sweetness Linger”) was measured, where attention was focused on the sweetness 3-4 min after the water rinse. After sample tasting was complete, a salty oyster cracker was chewed followed by a water rinse, and at least 5 minutes followed before tasting the next sample. The sweetness linger was rated by a panel of experts in the sensory evaluation of foods and beverages using the following scale: 0=no sweetness linger, 1=very slight sweetness linger, 2=slight sweetness linger, 3=moderate sweetness linger, 4=moderately high sweetness linger, 5=high sweetness linger.
The “Sweetness Linger” rating for sucrose observed by this protocol is defined as 0. The Sweetness Linger of a 500 ppm of REBA control sample is defined as 5. Experimental samples were tasted by the same protocol, always allowing sufficient time between samples to ensure re-equilibration of the sensory system. Re-tasting of control samples during the course of the experiment was allowed and encouraged.
The comparison taste test was performed between two controls and addition of sweet taste improving additive on the onset and/or sweetness linger.
Sweet taste improving compositions were combined with a REBA solution to determine their effect on sweetness linger. Screening of the initial sample, or further dilutions, allowed identification of concentrations which were just above-threshold, herein defined as “near-threshold concentrations.” The near-threshold additive concentrations, a 6- to 100-fold higher higher additive concentration (depending on the off-taste intensity), and a mid-level additive concentration (halfway between the near-threshold and higher additive concentration) were evaluated to determine the effect on sweetness linger of a REBA solution.
Formulations of a 500 ppm EBA in a phosphoric acid solution (75%) at a pH of 2.5 with phosphoric acid or a pH of 3.1 with citric acid and potassium citrate were prepared prior to the addition of the additives at the three levels of concentration.
Sensory evaluation using the protocol described in Example Set G then was used to evaluate the sweetness linger of the REBA solutions.

[2] = Rate of dissolution of rebaudioside A polymorph and amorphous forms in H2O; type: physicochemical
[3] = Example Set G: citric acid/potassium citrate composition equivalent to diet lemon-lime beverage, 3-4 min after water rinse
[4] = Example Set H: carbon-treated water with phosphoric acid (75%) to pH 2.4-2.5

In the case of OC[C@H]1O[C@@](CO)(O[C@H]2O[C@H](CO)[C@@H](O)[C@H](O)[C@H]2O)[C@@H](O)[C@@H]1O [sugar, sucrose], the sweetness linger [1, 3] is reported as 0 and the sweetness linger [1, 4] is reported as 0.

Compound rebaudioside A has a sweetness linger [1, 3] of 5 and a sweetness linger [1, 4] of 5.

In the case of rebaudioside A [Form 1], the “Rate of dissolution in H2O at 25° C.” value [2] is reported as “Very low (<0.2%/ %/60 minutes”.
